# Laboratory results reported in US7138361B2, “Herbicidal heterocycles” (E. I. du Pont de Nemours and Company, priority 2000, dated 2006).
# Experiments:
# Format in all cases: in vivo
# [1] = test system: lambsquarters (Chenopodium album); assay: Test C postemergence
# Description: (§1) Seeds of plant species selected from bermudagrass (Cynodon dactylon), Surinam grass (Brachiaria decumbens), cocklebur (Xanthium strumarium), corn (Zea mays), crabgrass (Digitaria sanguinalis), woolly cupgrass (Eriochloa villosa), giant foxtail (Setaria faberii), goosegrass (Eleusine indica), johnsongrass (Sorghum halepense), kochia (Kochia scoparia), lambsquarters (Chenopodium album), morningglory (Ipomoea hederacea), yellow nutsedge (Cyperus esculentus), pigweed (Amaranthus retroflexus), common ragweed (Ambrosia elatior), soybean (Glycine max) and velvetleaf (Abutilon theophrasti) were planted and treated preemergence with test chemicals formulated in a non-phytotoxic solvent mixture which included a surfactant.
# (§2) At the same time, plants selected from these crop and weed species and also winter barley (Hordeum vulgare), blackgrass (Alopecurus myosuroides), canary grass (Phalaris minor), chickweed (Stellaria media), downy brome (Bromus tectorum), green foxtail (Setaria viridis), Italian ryegrass (Lolium multiflorum), wheat (Triticum aestivum), wild oat (Avena fatua) and windgrass (Apera spica-venti) were treated with postemergence applications of some of the test chemicals formulated in the same manner. Plants ranged in height from 2 to 18 cm (1- to 4-leaf stage) for postemergence treatments. Plant species in the flooded paddy test consisted of rice (Oryza saliva), smallflower flatsedge (Cyperus difformis), duck salad (Heteranthera limosa) and barnyardgrass (Echinochloa crus-galli) grown to the 2-leaf stage for testing. Treated plants and controls were maintained in a greenhouse for 12 to 14 days, after which time all species were compared to controls and visually evaluated. Plant response ratings, summarized in Table C, are based on a scale of 0 to 100 where 0 is no effect and 100 is complete control. A dash (-) response means no test result.
# [2] = test system: bermudagrass (Cynodon dactylon); assay: Test C postemergence
# Description: as §1, §2
# [3] = test system: common ragweed (Ambrosia elatior); assay: Test C postemergence
# Description: as §1, §2
# [4] = test system: giant foxtail (Setaria faberii); assay: Test C postemergence
# Description: as §1, §2
# [5] = test system: morningglory (Ipomoea hederacea); assay: Test C postemergence
# Description: as §1, §2
# [6] = test system: pigweed (Amaranthus retroflexus); assay: Test C postemergence
# Description: as §1, §2
# [7] = test system: corn (Zea mays); assay: Test C postemergence
# Description: as §1, §2
# [8] = test system: Surinam grass (Brachiaria decumbens); assay: Test C postemergence
# Description: as §1, §2
# [9] = test system: yellow nutsedge (Cyperus esculentus); assay: Test C preemergence
# Outline: (§3)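 Pre- and postemergence treatments used a non-phytotoxic solvent/surfactant formulation; post-treated plants measured 2 to 18 cm. Greenhouse hold 12–14 d; % control estimated visually relative to controls.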
# [10] = test system: goosegrass (Eleusine indica); assay: Test C preemergence
# Outline: as §3
# [11] = test system: morningglory (Ipomoea hederacea); assay: Test C preemergence
# Outline: as §3
# [12] = test system: crabgrass (Digitaria sanguinalis); assay: Test C preemergence
# Outline: as §3
# [13] = test system: Sunflower; assay: Test C preemergence; conditions: scale 0 to 100
# [14] = Rate 125 g/ha, scale 0 to 100, 0 no effect, 100 complete control
# [15] = Rate 250 g/ha, scale 0 to 100 (0 no effect, 100 complete control)
# [16] = preemergence, Rate 31 g/ha, scale 0 to 100
# [17] = preemergence, Rate 62 g/ha, scale 0 to 100
# [18] = preemergence, Rate 250 g/ha, scale 0 to 100, 0 no effect, 100 complete control
compound,measurement,setting,value
CCOc1cc(N2CCC(n3ccc(C(C)(C)C)n3)C2=O)ccc1C (stereo not drawn) [Compound 106],"Plant response rating, Lambsquarters","[1]; Rate 31 g/ha, scale 0 to 100",80
same,"Plant response rating, Lambsquarters","[1]; Rate 62 g/ha, scale 0 to 100",80
same,"Plant response rating, Lambsquarters",[1]; [14],80
same,"Plant response rating, Lambsquarters",[1]; [15],100
same,"Plant response rating, Bermudagrass","[2]; Rate 31 g/ha, scale 0 to 100",0
same,"Plant response rating, Bermudagrass","[2]; Rate 62 g/ha, scale 0 to 100",0
same,"Plant response rating, Bermudagrass",[2]; [14],0
same,"Plant response rating, Bermudagrass",[2]; [15],20
same,"Plant response rating, Ragweed, Common","[3]; Rate 62 g/ha, scale 0 to 100",0
same,"Plant response rating, Ragweed, Common",[3]; [14],90
same,"Plant response rating, Foxtail, Giant","[4]; Rate 31 g/ha, scale 0 to 100",0
same,"Plant response rating, Foxtail, Giant","[4]; Rate 62 g/ha, scale 0 to 100",0
same,"Plant response rating, Foxtail, Giant",[4]; [14],0
same,"Plant response rating, Foxtail, Giant",[4]; [15],10
same,"Plant response rating, Morningglory","[5]; Rate 31 g/ha, scale 0 to 100",90
same,"Plant response rating, Morningglory","[5]; Rate 62 g/ha, scale 0 to 100",90
same,"Plant response rating, Morningglory",[5]; [14],90
same,"Plant response rating, Morningglory",[5]; [15],100
same,"Plant response rating, Pigweed","[6]; Rate 31 g/ha, scale 0 to 100",70
same,"Plant response rating, Pigweed","[6]; Rate 62 g/ha, scale 0 to 100",70
same,"Plant response rating, Pigweed",[6]; [14],80
same,"Plant response rating, Pigweed",[6]; [15],80
same,"Plant response rating, Corn","[7]; Rate 31 g/ha, scale 0 to 100",0
same,"Plant response rating, Corn","[7]; Rate 62 g/ha, scale 0 to 100",0
same,"Plant response rating, Corn",[7]; [14],0
same,"Plant response rating, Corn",[7]; [15],20
same,"Plant response rating, Surinam grass","[8]; Rate 31 g/ha, scale 0 to 100",0
same,"Plant response rating, Surinam grass","[8]; Rate 62 g/ha, scale 0 to 100",0
same,"Plant response rating, Surinam grass",[8]; [14],0
same,"Plant response rating, Surinam grass",[8]; [15],0
same,"Plant response rating, Nutsedge",[9]; [14],80
same,"Plant response rating, Nutsedge",[9]; [16],10
same,"Plant response rating, Nutsedge",[9]; [17],10
same,"Plant response rating, Nutsedge",[9]; [18],100
same,"Plant response rating, Goosegrass",[10]; [14],100
same,"Plant response rating, Goosegrass",[10]; [16],100
same,"Plant response rating, Goosegrass",[10]; [17],100
same,"Plant response rating, Goosegrass",[10]; [18],100
same,"Plant response rating, Morningglory",[11]; [14],100
same,"Plant response rating, Morningglory",[11]; [16],80
same,"Plant response rating, Morningglory",[11]; [17],90
same,"Plant response rating, Morningglory",[11]; [18],100
same,"Plant response rating, Crabgrass",[12]; [14],100
same,"Plant response rating, Crabgrass",[12]; [16],100
same,"Plant response rating, Crabgrass",[12]; [17],100
same,"Plant response rating, Crabgrass",[12]; [18],100
same,"Plant response rating, Sunflower",[13]; Rate 31 g/ha,70
same,"Plant response rating, Sunflower",[13]; Rate 62 g/ha,70
Cc1ccc(N2CCC(n3ccc(C(C)(C)C)n3)C2=O)cc1OCCCl (stereo not drawn) [Compound 109],"Plant response rating, Lambsquarters","[1]; Rate 31 g/ha, scale 0 to 100",70
same,"Plant response rating, Lambsquarters","[1]; Rate 62 g/ha, scale 0 to 100",70
same,"Plant response rating, Lambsquarters",[1]; [15],100
same,"Plant response rating, Bermudagrass","[2]; Rate 31 g/ha, scale 0 to 100",0
same,"Plant response rating, Bermudagrass","[2]; Rate 62 g/ha, scale 0 to 100",0
same,"Plant response rating, Bermudagrass",[2]; [14],10
same,"Plant response rating, Bermudagrass",[2]; [15],20
same,"Plant response rating, Ragweed, Common","[3]; Rate 31 g/ha, scale 0 to 100",0
same,"Plant response rating, Ragweed, Common","[3]; Rate 62 g/ha, scale 0 to 100",0
same,"Plant response rating, Foxtail, Giant","[4]; Rate 31 g/ha, scale 0 to 100",0
same,"Plant response rating, Foxtail, Giant","[4]; Rate 62 g/ha, scale 0 to 100",0
same,"Plant response rating, Foxtail, Giant",[4]; [15],0
same,"Plant response rating, Morningglory","[5]; Rate 31 g/ha, scale 0 to 100",60
same,"Plant response rating, Morningglory","[5]; Rate 62 g/ha, scale 0 to 100",100
same,"Plant response rating, Pigweed","[6]; Rate 31 g/ha, scale 0 to 100",70
same,"Plant response rating, Pigweed","[6]; Rate 62 g/ha, scale 0 to 100",70
same,"Plant response rating, Pigweed",[6]; [15],70
same,"Plant response rating, Corn","[7]; Rate 31 g/ha, scale 0 to 100",0
same,"Plant response rating, Corn","[7]; Rate 62 g/ha, scale 0 to 100",0
same,"Plant response rating, Corn",[7]; scale 0 to 100,40
same,"Plant response rating, Surinam grass","[8]; Rate 31 g/ha, scale 0 to 100",0
same,"Plant response rating, Surinam grass","[8]; Rate 62 g/ha, scale 0 to 100",0
same,"Plant response rating, Surinam grass",[8]; [14],0
same,"Plant response rating, Surinam grass",[8]; [15],0
same,"Plant response rating, Nutsedge",[9]; [14],0
same,"Plant response rating, Nutsedge",[9]; [16],0
same,"Plant response rating, Nutsedge",[9]; [17],0
same,"Plant response rating, Nutsedge",[9]; [18],0
same,"Plant response rating, Goosegrass",[10]; [14],100
same,"Plant response rating, Goosegrass",[10]; [16],90
same,"Plant response rating, Goosegrass",[10]; [17],100
same,"Plant response rating, Goosegrass",[10]; [18],100
same,"Plant response rating, Morningglory",[11]; [14],100
same,"Plant response rating, Morningglory",[11]; [16],30
same,"Plant response rating, Morningglory",[11]; [17],90
same,"Plant response rating, Morningglory",[11]; [18],100
same,"Plant response rating, Crabgrass",[12]; [14],100
same,"Plant response rating, Crabgrass",[12]; [16],100
same,"Plant response rating, Crabgrass",[12]; [17],100
same,"Plant response rating, Crabgrass",[12]; [18],100
same,"Plant response rating, Sunflower",[13]; Rate 31 g/ha,40
same,"Plant response rating, Sunflower",[13]; Rate 62 g/ha,70
